Source: patent US8173813B2, “Quinolone and tetrahydroquinolone and related compounds having NOS inhibitory activity” (NeurAxon, Inc., priority 2007, dated 2012)

Experiments:
nNOS (Rat) = nNOS (Rat) (Rattus norvegicus, UniProt P29476); experiment: nNOS (Rat) enzyme assay; type: biochemical; conditions: rodent enzymes; values in parentheses
Method: nNOS (Rat), eNOS (Rat) and iNOS (Mouse) Enzyme Assay Recombinant rat or mouse NO synthases (iNOS, eNOS, nNOS) were expressed in Sf9 cells (Sigma), 36 mg prot/ml (Bradford). […] Inhibition of NOS was determined by measuring the formation of L-[3H] citrulline from L-[3H] arginine. […] Stop buffer:100 mM Hepes, pH 5.5, 3 mM EDTA, 3 mM EGTA.

[1] = biological target: Recombinant human inducible NOS (iNOS) (Homo sapiens, UniProt P35228); experiment: Human iNOS enzyme assay, radiometric; type: biochemical; conditions: read-out: hiNOS IC50
[2] = system: Rats with L5/L6 spinal nerve ligation; experiment: Chung Spinal Nerve Ligation model, thermal hyperalgesia; type: in vivo, rat; conditions: standard dosings 3, 10, and 30 mg/kg injected IP
[3] = system: Male, Sprague Dawley rats; experiment: Porreca model of allodynia (inflammatory soup onto the dura, hindpaw von Frey); type: in vivo, rat
[4] = biological target: Nitric oxide synthase (endothelial, human recombinant) eNOS (Homo sapiens, UniProt P29474); experiment: Human eNOS enzyme assay ([3H]L-arginine to [3H]L-citrulline); type: biochemical; conditions: human recombinant eNOS; values without parentheses; read-out: heNOS IC50
eNOS (Rat) = eNOS (Rat) (Rattus norvegicus, UniProt Q62600); experiment: eNOS (Rat) enzyme assay; type: biochemical; conditions: values in parentheses, read-out: eNOS IC50 (rodent data in parentheses)
[5] = biological target: Nitric oxide synthase (neuronal, human recombinant) nNOS (Homo sapiens, UniProt P29475); experiment: Human nNOS enzyme assay ([3H]L-arginine to [3H]L-citrulline); type: biochemical
[6] = system: Rats with L5/L6 spinal nerve ligation; experiment: Chung Spinal Nerve Ligation model, tactile allodynia; type: in vivo, rat; conditions: standard dosings 3, 10, and 30 mg/kg injected IP
[7] = system: patients with cardiogenic shock; conditions: randomized trial of 30 patients; reduced from 67%; cited from earlier work
migraine patients [8] = conditions: human migraine; single i.v. administration; cited from earlier work
[9] = system: patients with persistent shock; conditions: 11 patients with persistent shock; up to 30 days; cited from earlier work
migraine patients [10] = conditions: human migraine; open pilot study; cited from earlier work

Chain of Nitric oxide synthase (neuronal, human recombinant) nNOS (P29475 whole entry): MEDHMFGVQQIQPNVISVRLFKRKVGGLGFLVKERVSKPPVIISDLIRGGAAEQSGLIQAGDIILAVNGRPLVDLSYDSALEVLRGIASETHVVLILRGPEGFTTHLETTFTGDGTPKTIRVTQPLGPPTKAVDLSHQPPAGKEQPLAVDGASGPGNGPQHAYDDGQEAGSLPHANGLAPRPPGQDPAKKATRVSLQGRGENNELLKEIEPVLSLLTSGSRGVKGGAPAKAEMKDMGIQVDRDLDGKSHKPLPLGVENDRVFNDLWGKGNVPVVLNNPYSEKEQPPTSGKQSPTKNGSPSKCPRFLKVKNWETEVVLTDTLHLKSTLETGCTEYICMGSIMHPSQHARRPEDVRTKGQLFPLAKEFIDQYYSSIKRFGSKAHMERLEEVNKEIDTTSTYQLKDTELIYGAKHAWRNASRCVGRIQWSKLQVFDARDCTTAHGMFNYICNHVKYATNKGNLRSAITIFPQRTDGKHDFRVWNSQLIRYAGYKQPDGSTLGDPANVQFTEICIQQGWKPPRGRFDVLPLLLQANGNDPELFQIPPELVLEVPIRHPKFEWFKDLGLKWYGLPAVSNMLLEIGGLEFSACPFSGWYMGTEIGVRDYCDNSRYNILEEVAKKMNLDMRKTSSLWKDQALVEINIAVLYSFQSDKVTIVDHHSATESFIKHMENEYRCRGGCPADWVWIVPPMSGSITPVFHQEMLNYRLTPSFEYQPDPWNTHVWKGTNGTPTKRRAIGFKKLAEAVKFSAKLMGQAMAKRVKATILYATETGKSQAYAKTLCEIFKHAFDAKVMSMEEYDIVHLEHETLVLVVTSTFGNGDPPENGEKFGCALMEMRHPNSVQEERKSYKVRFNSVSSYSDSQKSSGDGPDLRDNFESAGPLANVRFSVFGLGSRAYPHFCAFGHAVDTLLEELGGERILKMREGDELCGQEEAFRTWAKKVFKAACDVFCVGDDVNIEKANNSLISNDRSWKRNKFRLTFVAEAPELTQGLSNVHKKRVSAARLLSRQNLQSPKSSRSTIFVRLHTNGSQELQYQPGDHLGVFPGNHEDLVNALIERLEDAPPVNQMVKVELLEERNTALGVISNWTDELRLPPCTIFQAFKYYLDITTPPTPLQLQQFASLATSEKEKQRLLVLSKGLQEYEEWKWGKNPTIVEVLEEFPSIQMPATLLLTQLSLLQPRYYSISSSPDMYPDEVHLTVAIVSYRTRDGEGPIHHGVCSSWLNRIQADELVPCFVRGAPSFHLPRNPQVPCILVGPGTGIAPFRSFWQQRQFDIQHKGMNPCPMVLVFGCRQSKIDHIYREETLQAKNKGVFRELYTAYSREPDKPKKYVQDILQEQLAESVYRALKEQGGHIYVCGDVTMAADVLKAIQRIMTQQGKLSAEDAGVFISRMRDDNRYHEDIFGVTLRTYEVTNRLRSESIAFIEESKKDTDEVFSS
Chain of eNOS (Rat) (Q62600 2-1202): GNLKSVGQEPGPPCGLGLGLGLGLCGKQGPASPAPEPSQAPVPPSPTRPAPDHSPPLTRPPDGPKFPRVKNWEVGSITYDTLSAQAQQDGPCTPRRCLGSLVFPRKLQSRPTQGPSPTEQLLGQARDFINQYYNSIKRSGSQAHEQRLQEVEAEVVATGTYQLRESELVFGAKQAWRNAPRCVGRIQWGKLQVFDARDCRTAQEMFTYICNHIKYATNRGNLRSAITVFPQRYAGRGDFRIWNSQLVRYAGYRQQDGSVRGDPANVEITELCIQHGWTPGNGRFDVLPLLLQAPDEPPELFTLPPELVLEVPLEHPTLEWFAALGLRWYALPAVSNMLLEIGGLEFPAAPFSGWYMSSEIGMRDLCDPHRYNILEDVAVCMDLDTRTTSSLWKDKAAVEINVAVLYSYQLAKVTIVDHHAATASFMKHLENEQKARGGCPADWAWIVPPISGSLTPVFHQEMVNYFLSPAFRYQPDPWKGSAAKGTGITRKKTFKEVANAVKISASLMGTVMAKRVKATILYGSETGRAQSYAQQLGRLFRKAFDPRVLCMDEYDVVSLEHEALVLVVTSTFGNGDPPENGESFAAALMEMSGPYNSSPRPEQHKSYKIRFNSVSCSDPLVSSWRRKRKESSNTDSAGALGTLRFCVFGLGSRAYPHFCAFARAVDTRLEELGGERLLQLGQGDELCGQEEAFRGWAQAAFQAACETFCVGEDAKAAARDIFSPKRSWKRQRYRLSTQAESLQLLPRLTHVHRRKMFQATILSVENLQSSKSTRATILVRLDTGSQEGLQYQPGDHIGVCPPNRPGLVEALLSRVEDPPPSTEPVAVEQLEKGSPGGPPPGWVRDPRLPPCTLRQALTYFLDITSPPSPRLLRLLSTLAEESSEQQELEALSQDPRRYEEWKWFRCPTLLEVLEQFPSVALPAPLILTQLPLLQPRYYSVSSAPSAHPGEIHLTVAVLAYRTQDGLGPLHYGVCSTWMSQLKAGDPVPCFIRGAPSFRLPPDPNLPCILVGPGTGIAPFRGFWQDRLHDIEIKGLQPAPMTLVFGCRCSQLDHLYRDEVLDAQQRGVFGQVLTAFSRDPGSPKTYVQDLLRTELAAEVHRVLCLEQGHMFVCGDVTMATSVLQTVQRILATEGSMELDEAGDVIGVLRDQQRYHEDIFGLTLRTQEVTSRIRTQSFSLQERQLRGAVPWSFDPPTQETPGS
Chain of Nitric oxide synthase (endothelial, human recombinant) eNOS (P29474 2-1203): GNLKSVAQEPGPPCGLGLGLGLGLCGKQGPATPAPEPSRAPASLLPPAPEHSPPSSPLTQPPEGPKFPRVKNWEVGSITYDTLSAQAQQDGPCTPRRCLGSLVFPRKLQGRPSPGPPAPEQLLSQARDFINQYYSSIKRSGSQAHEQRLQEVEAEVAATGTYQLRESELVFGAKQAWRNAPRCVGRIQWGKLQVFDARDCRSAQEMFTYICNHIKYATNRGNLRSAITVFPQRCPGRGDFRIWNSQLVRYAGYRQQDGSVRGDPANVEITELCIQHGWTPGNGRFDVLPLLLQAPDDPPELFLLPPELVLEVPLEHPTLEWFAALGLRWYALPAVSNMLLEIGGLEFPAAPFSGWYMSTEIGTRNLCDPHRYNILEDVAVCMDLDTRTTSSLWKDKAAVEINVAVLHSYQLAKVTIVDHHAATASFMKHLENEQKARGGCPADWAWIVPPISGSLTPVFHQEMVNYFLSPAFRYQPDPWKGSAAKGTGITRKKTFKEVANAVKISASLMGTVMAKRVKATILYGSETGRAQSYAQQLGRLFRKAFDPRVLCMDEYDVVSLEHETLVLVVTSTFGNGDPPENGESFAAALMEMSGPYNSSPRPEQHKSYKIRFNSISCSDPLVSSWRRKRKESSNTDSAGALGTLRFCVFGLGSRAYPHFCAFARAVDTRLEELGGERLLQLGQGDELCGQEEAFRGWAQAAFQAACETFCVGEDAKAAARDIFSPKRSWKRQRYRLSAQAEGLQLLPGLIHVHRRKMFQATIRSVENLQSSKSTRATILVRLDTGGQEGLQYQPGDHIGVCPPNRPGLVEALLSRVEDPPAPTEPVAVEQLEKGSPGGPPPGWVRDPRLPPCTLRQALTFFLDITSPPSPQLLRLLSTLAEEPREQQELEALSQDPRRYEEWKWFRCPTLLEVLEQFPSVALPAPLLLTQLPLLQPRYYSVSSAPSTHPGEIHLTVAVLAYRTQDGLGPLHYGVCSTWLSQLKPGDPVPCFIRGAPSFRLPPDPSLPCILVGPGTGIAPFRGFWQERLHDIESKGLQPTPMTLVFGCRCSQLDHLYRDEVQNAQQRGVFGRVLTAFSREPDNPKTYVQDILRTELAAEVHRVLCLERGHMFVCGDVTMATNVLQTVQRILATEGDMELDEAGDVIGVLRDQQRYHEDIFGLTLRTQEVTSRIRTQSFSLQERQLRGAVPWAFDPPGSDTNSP
Chain of Recombinant human inducible NOS (iNOS) (P35228 whole entry): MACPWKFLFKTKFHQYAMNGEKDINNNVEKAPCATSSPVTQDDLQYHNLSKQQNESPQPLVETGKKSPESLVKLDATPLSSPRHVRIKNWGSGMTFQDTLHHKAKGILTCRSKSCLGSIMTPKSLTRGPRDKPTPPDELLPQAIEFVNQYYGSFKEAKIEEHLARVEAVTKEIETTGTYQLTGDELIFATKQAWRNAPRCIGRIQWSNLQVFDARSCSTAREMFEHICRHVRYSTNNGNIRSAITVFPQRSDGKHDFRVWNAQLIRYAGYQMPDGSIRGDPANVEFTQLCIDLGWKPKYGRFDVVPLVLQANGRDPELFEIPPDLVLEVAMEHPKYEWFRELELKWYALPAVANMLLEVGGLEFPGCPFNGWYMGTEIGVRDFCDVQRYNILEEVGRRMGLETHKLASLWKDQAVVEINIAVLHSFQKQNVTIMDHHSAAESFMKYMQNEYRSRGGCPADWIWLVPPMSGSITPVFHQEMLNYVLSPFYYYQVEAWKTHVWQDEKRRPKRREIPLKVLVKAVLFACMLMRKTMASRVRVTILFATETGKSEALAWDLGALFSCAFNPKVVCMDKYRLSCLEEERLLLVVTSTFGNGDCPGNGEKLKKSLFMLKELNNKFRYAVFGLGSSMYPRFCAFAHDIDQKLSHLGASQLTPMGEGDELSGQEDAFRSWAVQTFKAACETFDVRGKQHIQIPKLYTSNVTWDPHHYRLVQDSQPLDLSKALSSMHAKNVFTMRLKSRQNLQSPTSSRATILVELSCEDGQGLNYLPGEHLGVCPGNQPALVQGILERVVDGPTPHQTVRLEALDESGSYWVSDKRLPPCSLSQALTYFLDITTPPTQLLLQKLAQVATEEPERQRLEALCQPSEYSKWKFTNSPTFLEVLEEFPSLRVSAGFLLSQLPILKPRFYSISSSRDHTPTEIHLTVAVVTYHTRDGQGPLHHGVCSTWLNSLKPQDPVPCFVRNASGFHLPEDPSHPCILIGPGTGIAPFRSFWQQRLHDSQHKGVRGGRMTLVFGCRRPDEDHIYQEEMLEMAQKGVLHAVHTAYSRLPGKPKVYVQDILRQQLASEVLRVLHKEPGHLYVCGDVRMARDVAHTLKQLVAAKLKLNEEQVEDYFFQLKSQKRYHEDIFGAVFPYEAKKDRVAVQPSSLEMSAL

In the case of `CN1CCCC1CCN1CCCc2cc(NC(=N)c3cccs3)ccc21` (single isomer, unassigned) [Example 23, N-(1-(2-(1-Methylpyrrolidin-2-yl)ethyl)-1,2,3,4-tetrahydroquinolin-6-yl)thiophene-2-carboximidamide], the “Selectivity eNOS/nNOS (rodent data in parentheses)” value (nNOS (Rat)) is reported as “(>434)”, the IC50 [1] is reported as > 100 µM and the “antihyperalgesic effect in the Chung model” value [2] is reported as “clear antihyperalgesic effect”. For the same compound, the “hindpaw allodynia after inflammatory soup (IS)” value ([3]; 30 mg/kg p.o. 15 minutes prior to IS) was “reverses the development of hindpaw allodynia”, the IC50 [4] was 41 µM and the IC50 (eNOS (Rat)) was > 100 µM. The “Selectivity eNOS/nNOS” value ([5]; human enzymes, ratio of eNOS IC50 to nNOS IC50) was 157, the IC50 ([5]; human recombinant nNOS, values without parentheses, read-out: hnNOS IC50) was 0.26 µM and the “antiallodynic effect in the Chung model” value [6] was “antiallodynic effect”.

For `COC(=O)[C@@H](N)CCCNC(=N)N[N+](=O)[O-]` [L-NAME, N^G-Nitro-L-arginine methyl ester], the patient mortality [7] is listed as 27%.

In the case of `CNC(=N)NCCC[C@H](N)C(=O)O` [L-NMMA, N^G-monomethyl-L-arginine], the “hindpaw allodynia after inflammatory soup (IS)” value ([3]; 10 mg/kg i.v 15 minutes prior to IS) is given as “reverses the development of hindpaw allodynia”, the response rate (migraine patients [8]) is given as 67% and the survival rate [9] is given as 72%.

In the case of `C/C1=C2/[N-][C@H]([C@H](CC(N)=O)[C@@]2(C)CCC(=O)NC[C@@H](C)OP(=O)([O-])O[C@H]2[C@@H](O)[C@@H](n3cnc4cc(C)c(C)cc43)O[C@@H]2CO)[C@]2(C)N=C(/C(C)=C3N=C(/C=C4N=C1[C@@H](CCC(N)=O)C\4(C)C)[C@@H](CCC(N)=O)[C@]\3(C)CC(N)=O)[C@@H](CCC(N)=O)[C@]2(C)CC(N)=O.[Co+3].[OH-]` [hydroxycobalamin], the “patients with a reduction in the frequency of migraine attack of 50%” value (migraine patients [10]) is listed as 53%.
